Bounds are passed on as bounds.

A short description of data set [1]: Cytotoxicity evaluation (Cell Titer 96 AQueous One Solution Cell Proliferation Assay). It is filed as cell-based. Conditions: human; GS4.1 cells, cellular viability. The procedure: For cytotoxicity evaluation, GS4.1 cells were treated with compounds as described above and cellular viability was monitored using the Cell Titer 96 AQueous One Solution Cell Proliferation Assay (Promega). CC50 values were determined from the % cytotoxicity versus concentration data with Tecan Magellan software as described above.

For data set [2], the target named is T1, HCV NS3-NS4A protease (Hepatitis C virus genotype 1b, UniProt P26663).
T1 construct: made in house
T1 sequence (P26663 1027-1208): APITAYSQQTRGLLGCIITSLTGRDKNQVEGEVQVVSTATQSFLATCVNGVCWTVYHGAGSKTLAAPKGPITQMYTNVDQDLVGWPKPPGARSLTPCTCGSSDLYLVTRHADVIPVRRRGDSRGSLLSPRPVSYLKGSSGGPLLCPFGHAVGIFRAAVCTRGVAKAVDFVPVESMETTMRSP
Description: HCV Protease Assay (SensoLyte 620 HCV Protease Assay kit). It is filed as biochemical. As to conditions: 1.2 nM HCV NS3-NS4A protease, 60 min at room temperature, 5% DMSO. The method, then: General procedure: Measurement of the inhibitory effect of compounds on HCV protease activity was performed with the SensoLyte™ 620 HCV Protease Assay kit from AnaSpec, Inc. (San Jose, Calif.) under conditions described by the supplier using 1.2 nM HCV NS3-NS4A protease, which was obtained according to Taremi et al. (Protein Science, 1998, 7, 2143-2149). The compounds were tested at a variety of concentrations in assay buffer containing a final DMSO concentration of 5%. Reactions were allowed to proceed for 60 min at room temperature and fluorescence measurements were recorded with a Tecan Infinity Spectrofluorimeter. The IC50 values were determined from the percent inhibition versus concentration data using a sigmoidal non-linear regression analysis based on four parameters with Tecan Magellan software.

Data set [3] deals with Huh-7 cells containing HCV Con1 subgenomic replicon (GS4.1 cells). Description: HCV Replicon Assay (NS4A ELISA). It is filed as cell-based. As to conditions: Hepatitis C virus, Huh-7, 72 hr, NS4A protein by ELISA. The method, then:
General procedure: Huh-7 cells containing HCV Con1 subgenomic replicon (GS4.1 cells) were grown in Dulbecco's Modified Eagle Medium (DMEM) supplemented with 10% fetal bovine serum (FBS), 2 mM L-glutamine, 110 mg/L sodium pyruvate, 1× non-essential amino acids, 100 U/mL penicillin-streptomycin, and 0.5 mg/mL G418 (Invitrogen). For dose-response testing, the cells were seeded in 96-well plates at 7.5×10^3 cells/well in a volume of 50 μL, and incubated at 37° C./5% CO2. Three hours after plating, 50 μL of ten 2-fold serial dilutions of compounds (highest concentration, 75 μM) were added, and cell cultures were incubated at 37° C./5% CO2 in the presence of 0.5% DMSO. Alternatively, compounds were tested at a single concentration of 15 μM. In all cases, Huh-7 cells lacking the HCV replicon served as negative control. The cells were incubated in the presence of compounds for 72 hr after which they were monitored for expression of the NS4A protein by enzyme-linked immunosorbent assay (ELISA). For this, the plates were then fixed for 1 min with acetone/methanol (1:1, v/v), washed twice with phosphate-buffered saline (PBS), 0.1% Tween 20, blocked for 1 hr at room temperature with TNE buffer containing 10% FBS and then incubated for 2 hr at 37° C. with the anti-NS4A mouse monoclonal antibody A-236 (ViroGen) diluted in the same buffer. After washing three times with PBS, 0.1% Tween 20, the cells were incubated 1 hr at 37° C. with anti-mouse immunoglobulin G-peroxidase conjugate in TNE, 10% FBS. After washing as described above, the reaction was developed with O-phenylenediamine (Zymed). The reaction was stopped after 30 min with 2 NH2SO4, and absorbance was read at 492 nm using Sunrise Tecan spectrophotometer. EC50 values were determined from the % inhibition versus concentration data using a sigmoidal non-linear regression analysis based on four parameters with Tecan Magellan software. When screening at a single concentration, the results were expressed as % inhibition at 15 μM.
In general terms: Replicon systems follow genome replication, usually without infectious particles.

For `COc1ccc2c(O[C@H]3C[C@H]4C(=O)N(C)CCCC/C=C\[C@@H]5C[C@@]5(C(=O)NS(=O)(=O)C5(C)CC5)NC(=O)N4C3)cc(-c3csc(C(C)C)n3)nc2c1Cl` [Compound 101d, (Z)-(4R,6S,15S,17S)-[17-[8-chloro-7-methoxy-2-(2-isopropythiazol-4-yl)quinolin-4-yloxy]-13-N-methyl-2,14-dioxo-1,3,13-triazatricyclo[13.3.0.0]octadec-7-ene-4-yl]carbonyl(1-methylcyclopropyl)sulfonamide], in data set [1], the CC50 was more than 75000 nM. In data set [2], this compound displayed an IC50 of less than 1000 nM. Moreover, the EC50 in data set [3] is less than 1000 nM.

In data set [1], `COc1ccc2c(O[C@H]3C[C@H]4C(=O)N(C)CCCC/C=C\[C@@H]5C[C@@]5(C(=O)NS(=O)(=O)C5(C)CC5)NC(=O)N4C3)nc(-c3nc(C(C)C)cs3)nc2c1Cl` [Compound 110d, (Z)-(4R,6S,15S,17S)-[17-[8-chloro-7-methoxy-2-(4-isopropylthiazol-2-yl)quinazolin-4-yloxy]-13-N-methyl-2,14-dioxo-1,3,13-triazatricyclo[13.3.0.0]octadec-7-ene-4-yl]carbonyl(1-methylcyclopropyl)sulfonamide] displayed a cytotoxic concentration (CC50) of more than 75000 nM. The same compound returned an IC50 in data set [2] of less than 1000 nM. This compound came in with a half-maximal effective concentration (EC50) in data set [3] of less than 1000 nM.

`C#Cc1csc(-c2cc(O[C@H]3C[C@H]4C(=O)N(C)CCCC/C=C\[C@@H]5C[C@@]5(C(=O)NS(=O)(=O)C5CC5)NC(=O)N4C3)c3ccc(OC)c(Cl)c3n2)n1` [Compound G1, (Z)-(4R,6S,15S,17S)-[17-[8-chloro-7-methoxy-2-(4-ethynylthiazol-2-yl)quinolin-4-yloxy]-13-N-methyl-2,14-dioxo-1,3,13-triazatricyclo-[13.3.0.0]octadec-7-en-4-yl]carbonyl(cyclopropyl)sulfonamide] gave a CC50 in data set [1] of 10000 to 75000 nM. In data set [2], the IC50 was less than 1000 nM. For the same compound, in data set [3], the half-maximal effective concentration (EC50) was less than 1000 nM.

For the compound `C#Cc1csc(-c2cc(O[C@H]3C[C@H]4C(=O)N(C)CCCC/C=C\[C@@H]5C[C@@]5(C(=O)NS(=O)(=O)C5(C)CC5)NC(=O)N4C3)c3ccc(OC)c(Cl)c3n2)n1` [Compound G2, (Z)-(4R,6S,15S,17S)-[17-[8-chloro-7-methoxy-2-(4-ethynylthiazol-2-yl)quinolin-4-yloxy]-13-N-methyl-2,14-dioxo-1,3,13-triazatricyclo-[13.3.0.0]octadec-7-en-4-yl]carbonyl(1-methyl-cyclopropyl)sulfonamide], in data set [1], the CC50 was 10000 to 75000 nM. Also, the half-maximal inhibitory concentration (IC50) in data set [2] is less than 1000 nM. The EC50 in data set [3] was less than 1000 nM.

`C#Cc1csc(-c2cc(O[C@H]3C[C@H]4C(=O)N(C)CCCC/C=C\[C@@H]5C[C@@]5(C(=O)NS(=O)(=O)C5CC5)NC(=O)N4C3)c3ccc(OC)c(C)c3n2)n1` [Compound G3, (Z)-(4R,6S,15S,17S)-[17-[7-methoxy-8-methyl-2-(4-ethynylthiazol-2-yl)quinolin-4-yloxy]-13-N-methyl-2,14-dioxo-1,3,13-triazatricyclo-[13.3.0.0]octadec-7-en-4-yl]carbonyl(cyclopropyl)sulfonamide]: the 50% cytotoxic concentration (CC50) in data set [1] is 10000 to 75000 nM. The compound further gave an IC50 in data set [2] of less than 1000 nM. The compound also displayed an EC50 in data set [3] of less than 1000 nM.

Take `C#Cc1csc(-c2cc(O[C@H]3C[C@H]4C(=O)N(C)CCCC/C=C\[C@@H]5C[C@@]5(C(=O)NS(=O)(=O)C5(C)CC5)NC(=O)N4C3)c3ccc(OC)c(C)c3n2)n1` [Compound G4, (Z)-(4R,6S,15S,17S)-[17-[7-methoxy-8-methyl-2-(4-ethynylthiazol-2-yl)quinolin-4-yloxy]-13-N-methyl-2,14-dioxo-1,3,13-triazatricyclo-[13.3.0.0]octadec-7-en-4-yl]carbonyl (1-methylcyclopropyl)sulfonamide]: in data set [1], the CC50 lay in the range of 10000 to 75000 nM. Further, the IC50 in data set [2] was less than 1000 nM. Moreover, in data set [3], the EC50 is less than 1000 nM.

For `COc1ccc2c(O[C@H]3C[C@H]4C(=O)N(C)CCCC/C=C\[C@@H]5C[C@@]5(C(=O)NS(=O)(=O)C5CC5)NC(=O)N4C3)cc(-c3csc(C(F)(F)F)n3)nc2c1Cl` [Compound O1, (Z)-(4R,6S,15S,17S)-[17-[8-chloro-7-methoxy-2-(2-trifluoromethylthiazol-4-yl)quinolin-4-yloxy]-13-N-methyl-2,14-dioxo-1,3,13-triazatricyclo-[13.3.0.0]octadec-7-en-4-yl]carbonyl-(cyclopropyl)sulfonamide], the CC50 in data set [1] is 10000 to 75000 nM. The IC50 in data set [2] was less than 1000 nM. In data set [3], this compound gave a concentration for a half-maximal effect (EC50) of less than 1000 nM.

`COc1ccc2c(O[C@H]3C[C@H]4C(=O)N(C)CCCC/C=C\[C@@H]5C[C@@]5(C(=O)NS(=O)(=O)C5(C)CC5)NC(=O)N4C3)cc(-c3csc(C(F)(F)F)n3)nc2c1Cl` [Compound O2, (Z)-(4R,6S,15S,17S)-[17-[8-chloro-7-methoxy-2-(2-trifluoromethylthiazol-4-yl)quinolin-4-yloxy]-13-N-methyl-2,14-dioxo-1,3,13-triazatricyclo-[13.3.0.0]octadec-7-en-4-yl]carbonyl-(1-methylcyclopropyl)sulfonamide] showed a CC50 in data set [1] of 10000 to 75000 nM. Moreover, in data set [2], the IC50 is less than 1000 nM. This compound yielded a concentration for a half-maximal effect (EC50) in data set [3] of less than 1000 nM.

In data set [1], `COc1ccc2c(O[C@H]3C[C@H]4C(=O)N(C)CCCC/C=C\[C@@H]5C[C@@]5(C(=O)NS(=O)(=O)C5CC5)NC(=O)N4C3)cc(-c3csc(C(F)(F)F)n3)nc2c1C` [Compound O3, (Z)-(4R,6S,15S,17S)-[17-[7-methoxy-8-methyl-2-(2-trifluoromethylthiazol-4-yl)quinolin-4-yloxy]-13-N-methyl-2,14-dioxo-1,3,13-triazatricyclo-[13.3.0.0]octadec-7-en-4-yl]carbonyl-(cyclopropyl)sulfonamide] showed a CC50 of 10000 to 75000 nM. Moreover, the IC50 in data set [2] was less than 1000 nM. This compound also registered an EC50 in data set [3] of less than 1000 nM.

In data set [1], `COc1ccc2c(O[C@H]3C[C@H]4C(=O)N(C)CCCC/C=C\[C@@H]5C[C@@]5(C(=O)NS(=O)(=O)C5(C)CC5)NC(=O)N4C3)cc(-c3csc(C(F)(F)F)n3)nc2c1C` [Compound O4, (Z)-(4R,6S,15S,17S)-[17-[7-methoxy-8-methyl-2-(2-trifluoromethylthiazol-4-yl)quinolin-4-yloxy]-13-N-methyl-2,14-dioxo-1,3,13-triazatricyclo-[13.3.0.0]octadec-7-en-4-yl]carbonyl-(1-methylcyclopropyl)sulfonamide] came in with a CC50 of more than 75000 nM. The IC50 in data set [2] is less than 1000 nM. Further, the EC50 in data set [3] is less than 1000 nM.

In general, CC50 refers to the concentration that lowers cell viability or growth by half. High values mean better tolerance by the cells, low ones harm at low concentration. For orientation: IC50 means the concentration that inhibits the measured activity by half. Read a high IC50 as lower potency. The EC50 is the midpoint of the concentration-response curve.

The record behind these values is patent US8003659B2, “Macrocyclic serine protease inhibitors” (Indenix Pharmaceuticals, Inc., priority 2008, dated 2011).
